Measured values: patent publication US11801000B2, “Hormone electrochemical biosensor” (Trustees of Boston University, priority 2021, dated 2023)
“Also recorded” adds a separate entry of the source.

Key:
[1] = Cyclic voltammetry, electroactivity on DS110 carbon SPE; type: physicochemical
KSDH1 [2] = test: Amplex UltraRed assay (H2O2 detection by fluorescence); type: biochemical, Pimelobacter simplex; details: 500 μM final PRG, CRT; 4.56 μM KSDH1; normalized (analytes without enzyme subtracted)
Procedure: FIGS. 6A-6B are schematics and graphs detailing the Amplex® UltraRed Reagent assay in which fluorescence is analyte limited, not enzyme limited. FIG. 6A is a schematic showing the Amplex® UltraRed mechanism for oxidase enzymes. Hormone is oxidized into product and H2O2 with presence of […] and O2. Horseradish peroxidase (HRP) then oxidizes Amplex® UltraRed in the presence of H2O2 into resorufin, which is fluorescent.
In Vitro Enzyme Characterization: Amplex® UltraRed assays were performed per instruction of the manufacturer (Thermo Fisher Scientific, Cambridge, Mass.). Final concentrations of Amplex® UltraRed, 500 uM, and HRP, 1 U/mL, in a total volume of 20 μL were used. Hormone and KSDH1 and KSDH2 concentrations varied with experiment. All measurements of fluorescence were done in a 384 well flat bottom black polystyrene microplate (Corning Inc.™, Corning, N.Y.) and read in an Infinite M200 Pro™ (TECAN Group Ltd.™, Medford, Mass.) spectrophotometer at room temperature with the excitation set to 490 nm and emission at 585 nm. Readings were done over 1 hour with each well read every 30 seconds.
(§1) The FAD-binding (KSDH1) enzyme was used to develop and optimize a hormone electrochemical biosensor. […] KSDH1 was also assessed using a DCPIP Assay to test whether it is a dehydrogenase.

KSDH1 [3] = test: 2,6-Dichlorophenolindophenol (DCPIP) dehydrogenase functional assay; type: biochemical, Pimelobacter simplex; details: for Binding affinity, kinetics derived from velocity by hormone concentration experiment: FIG. 9C-9D
Procedure: A 2,6-Dichlorophenolindophenol functional assay was used to test whether KSDH1 is a dehydrogenase (FIG. 9A).
as §1

Pimelobacter simplex = test: RNA-Seq of Pimelobacter simplex in the presence of hormone; type: cell-based; details: P. simplex grown in the presence of progesterone
Procedure: FIG. 3 is a series of graphs showing that RNA-Seq identified the steroid degrading genome cluster in Pimelobacter simplex.
Strain RNA Extraction: Cells were grown in 5 mL M18 at a starting OD600 of 0.005 with 21.6 μM hormone in 14 mL polypropylene round-bottom tubes (Corning Inc.™, Corning, N.Y.) in singlet. The cells were incubated at 30° C. with continuous orbital shaking at 150 rpm until the end of lag-phase (3 hours) and mid-log phase (7.5 hours) from the start of inoculation. Controls were grown in the same conditions without hormone. […] RNA samples were subsequently quantified using Qubit RNA HS Assay Kit™ (Thermo Fisher Scientific Inc.™, Cambridge, Mass.) and analyzed using a RNA 6000 Pico Kit™ (Agilent Technologies Inc.™, Santa Clara, Calif.) in a 2100 Bioanalyzer™ (Agilent Technologies Inc.™, Santa Clara, Calif.). […]
RNA-Seq Library Preparation: After RNA samples have been quantified and analyzed they were DNase treated using TURBO™ DNase 2 U/μL (Thermo Fisher Scientific Inc™ Cambridge, Mass.) and cleaned using Agencourt RNAClean™ XP SPRI beads (Beckman Coulter, Inc.™, Brea, Calif.). […] Whole transcriptome RNA sequencing was performed by a NextSeq 500™ (Illumina Inc.™, San Diego, Calif.) at high output (400 M reads) with 75 bp paired end sequencing read length. The data was then analyzed in-house through a proprietary lab computational pipeline.

[4] = KSDH1 stability (storage, immobilizing polymer) on biosensor; type: physicochemical
Description: FIG. 27. KSDH1 precipitation in the presence of chitosan, an immobilizing polymer, is evident.
FIG. 30A-B. Glutaraldehyde immobilization decreases signal (FIG. 30A).

[5] = DS110, DMSO as solvent (FIG. 16A)
[6] = DS110, EtOH as solvent (FIG. 16B)

| Molecule | Electroactivity by cyclic voltammetry [1, 5] | Electroactivity by cyclic voltammetry [1, 6] | KSDH1 response (fluorescence signal) to analyte (KSDH1 [2]) | Binding affinity, kinetics derived from velocity by hormone concentration experiment (KSDH1 [3]) | Expression of sterol responsive enzymes KSDH1 and KSDH2 (SRGI cluster) (Pimelobacter simplex) | KSDH1 sensitivity in sterol screen (DCPIP reduction, absorbance at OD600 nm) (KSDH1 [3]; sterol screen, FIG. 9B) | Behaviour in the presence of chitosan, an immobilizing polymer ([4]; FIG. 27) | Current output after storage ([4]; storage at 4 C for 1 week, two electrode configuration, DS110, +0.4V) |
| --- | --- | --- | --- | --- | --- | --- | --- | --- |
| C[C@]12CCC(=O)C=C1CC[C@@H]1[C@@H]2[C@@H](O)C[C@@]2(C)[C@H]1CC[C@]2(O)C(=O)CO [Cortisol, hydrocortisone] | not electroactive | not electroactive | increase of fluorescence; also recorded: responsive | strong |  |  |  |  |
| CC(=O)[C@H]1CC[C@H]2[C@@H]3CCC4=CC(=O)CC[C@]4(C)[C@H]3CC[C@]12C [Progesterone, progesterone] | not electroactive | not electroactive | increase of fluorescence; also recorded: responsive | strong | highly expressed | DCPIP was reduced; also recorded: high sensitivity |  |  |
| 3-ketosteroid-Δ1-dehydrogenase enzyme 1 (protein, 6xHis tag) MDWAEEYDVLVAGSGAGGMAGTYTAAREGLSVCLVEAGDKFGGTTAYSGGGGAWFPANPVLLRAGTDDTIEDALEYYRAVVGDRTPADLQETYVRGGAGLVAYLEEDDHFSFESYPWPDYFGDAPKARRDGQRHIIPTPLPVPSAPELREVVRGPLDNDRLGTPQPDDLFIGGRALVARFLTALATYPHATLVRETALAELVVEDGVVVGAIVETDGVRRAIRARRGVLLAAGGFEANDELRQKYGVPGVARDTMGPPTNVGAAHQAAIAVGADTDLMGEAWWSPGLTHPDGRSAFALWFTGGIFVDGAGRRFVNESAPYDRLGRAVIDHLTEGGVTPRYWMVYDHKEGSIPPVRATNVSMVDEEQYVAAGLWHTADTLPELAALIGVPADALVATVARFNELVADGYDADFGRGGEAYDRFFSGGEPPLVSIDEGPFHAAAFGISDLGTKGGLRTDTSARVLTADGTPIGGLYAAGNTMAAPSGTTYPGGGNPIGTSMLFSHLAVRHMGTEDARGSHHHHHH |  |  |  |  |  |  | precipitation | no change in current output |
